Experimental data reported in US20240252450A1, “TREATMENT FOR EPILEPTIC SEIZURES” (priority 2021, published 2024).

Test system: epileptic seizures
Assay: Clinical treatment of the inventor's child with mixed epileptic seizure types (case report)
Type: in vivo, human
Conditions: for effect on the child's epileptic seizures: onset, hundreds of seizures a day, substance given without cannabis extract
Excerpt: The inventor has a child, who, experienced an abrupt onset of hundreds of absence seizures a day that developed into mixed epileptic seizure types, including absence, focal, atonic, myoclonic-atonic, tonic, and eventually a 10-hour status epilepticus seizure. The Inventor was told their child would die in their sleep from SUDEP and no medication will be able to treat them. […] The child is […] now and has developed normally.

Structure (SMILES) | side effects (child with intractable seizures, Keppra without cannabis extract) | effect on the child's epileptic seizures
CC[C@@H](C(N)=O)N1CCCC1=O [Keppra, Levetiracetam] | side effects of nausea and “Keppra rage” | reduced the frequency of the seizures but could not fully control them
C=C(C)[C@@H]1CCC(C)=C[C@H]1c1c(O)cc(CCCCC)cc1O [CBD, cannabidiol] | – | neither did CBD alone
